This is an account of results in paper PMC3022637, “The modulation of TRPM7 currents by nafamostat mesilate depends directly upon extracellular concentrations of divalent cations” (Molecular Brain, 2010).

Test [1] concerns CA1 neurons in the hippocampal slice. Description: Low divalent-induced inward current in CA1 neurons in the hippocampal slice. The test is classed as cell-based. Particulars: co-perfusion. The text has this: To verify this we tested several compounds with benzene rings on their outer edge such as DAPI and HSB. Both DAPI and HSB are di-cations but with amidine groups at both termini. […] We also examined the actions of NM on CA1 neurons in the hippocampal slice in order to confirm whether or not NM was capable of inhibiting and activating this current in CA1 neurons in situ. The diffusion barriers presented in the slice preparation preclude very rapid changes in divalent cation concentrations but prolonged solution changes can be used to activate TRPM7 currents in this preparation. Lowering concentrations of divalent cations induced a slowly activating inward current that was attenuated by the co-perfusion of NM (not shown).

The test system of test [2] is cultured hippocampal neurons. The test is described as follows: On-cell loose-patch recording of low Ca2+-induced action potential firing. The test is classed as cell-based, mouse. Particulars: NM 200 μM; induced by 0.5 mM Ca2+ and 0.5 mM Mg2+; control 8.5 ± 2.7 Hz.

Consider `N=C(N)c1ccc2cc(OC(=O)c3ccc(N=C(N)N)cc3)ccc2c1` [NM, 6-amidino-2-naphthyl-4-guanidinobenzobate dimethanesulfonate], for which the “effect on slowly activating inward current induced by lowering divalent cations” value in test [1] is recorded as “attenuated”. In test [2], the “firing frequency of action potentials” value is 6.8 ± 2.9 Hz.
